{"source": "the NIST ThermoML archive (doi:10.1021/je700448v)", "key": {"[1]": {"test": "Molar enthalpy of transition or fusion", "conditions": "Crystal; DSC"}, "[2]": {"conditions": "Crystal; DTA"}}, "note": "± gives the expanded uncertainty stated by the source.", "data": [{"smiles": "O=Cc1ccc(Br)cc1", "note": "[4-bromobenzaldehyde]", "values": [{"measurement": "Molar enthalpy of transition or fusion", "setting": "[1]", "value": "5.41 ± 0.124", "unit": "kcal/mol"}, {"measurement": "Normal melting temperature", "setting": "[2]", "value": "61.1 ± 0.4", "unit": "°C"}]}]}
